# Laboratory results taken from PubChem BioAssay (NCI).
#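 Five compound concentrations were applied to cells in 96-well plates for 48 hours; endpoints were derived by simple linear interpolation of the resulting dose-response curve. GI50 is the concentration that inhibits growth by half. At the TGI there is no net growth.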
# What was measured:
# Test in all cases: NCI-60 cell line screen, 48 h
# 786-0 renal = tested on: 786-0 renal
# A498 renal = tested on: A498 renal
# A549 NSCLC = tested on: A549 NSCLC
# ACHN renal = tested on: ACHN renal
# BT-549 breast = tested on: BT-549 breast
# CAKI-1 renal = tested on: CAKI-1 renal
# CCRF-CEM leukemia = tested on: CCRF-CEM leukemia
# COLO 205 colon = tested on: COLO 205 colon
# DU-145 prostate = tested on: DU-145 prostate
# EKVX NSCLC = tested on: EKVX NSCLC
# HCC-2998 colon = tested on: HCC-2998 colon
# HCT-116 colon = tested on: HCT-116 colon
# HCT-15 colon = tested on: HCT-15 colon
# HL-60(TB) leukemia = tested on: HL-60(TB) leukemia
# HOP-62 NSCLC = tested on: HOP-62 NSCLC
# HOP-92 NSCLC = tested on: HOP-92 NSCLC
# HS 578T breast = tested on: HS 578T breast
# HT29 colon = tested on: HT29 colon
# IGROV1 ovarian = tested on: IGROV1 ovarian
# K-562 leukemia = tested on: K-562 leukemia
# KM12 colon = tested on: KM12 colon
# LOX IMVI melanoma = tested on: LOX IMVI melanoma
# M14 melanoma = tested on: M14 melanoma
# MALME-3M melanoma = tested on: MALME-3M melanoma
# MCF7 breast = tested on: MCF7 breast
# MDA-MB-231 breast = tested on: MDA-MB-231 breast
# MDA-MB-435 = tested on: MDA-MB-435
# MOLT-4 leukemia = tested on: MOLT-4 leukemia
# NCI-H226 lung = tested on: NCI-H226 lung
# NCI-H23 lung = tested on: NCI-H23 lung
# NCI-H460 lung = tested on: NCI-H460 lung
# NCI-H522 lung = tested on: NCI-H522 lung
# NCI/ADR-RES ovarian = tested on: NCI/ADR-RES ovarian
# OVCAR-3 ovarian = tested on: OVCAR-3 ovarian
# OVCAR-4 ovarian = tested on: OVCAR-4 ovarian
# OVCAR-5 ovarian = tested on: OVCAR-5 ovarian
# OVCAR-8 ovarian = tested on: OVCAR-8 ovarian
# PC-3 prostate = tested on: PC-3 prostate
# RPMI-8226 leukemia = tested on: RPMI-8226 leukemia
# RXF 393 renal = tested on: RXF 393 renal
# SF-268 CNS = tested on: SF-268 CNS
# SF-295 CNS = tested on: SF-295 CNS
# SF-539 CNS = tested on: SF-539 CNS
# SK-MEL-2 melanoma = tested on: SK-MEL-2 melanoma
# SK-MEL-28 melanoma = tested on: SK-MEL-28 melanoma
# SK-MEL-5 melanoma = tested on: SK-MEL-5 melanoma
# SK-OV-3 ovarian = tested on: SK-OV-3 ovarian
# SN12C renal = tested on: SN12C renal
# SNB-19 CNS = tested on: SNB-19 CNS
# SNB-75 CNS = tested on: SNB-75 CNS
# SR leukemia = tested on: SR leukemia
# SW-620 colon = tested on: SW-620 colon
# T-47D breast = tested on: T-47D breast
# TK-10 renal = tested on: TK-10 renal
# U251 CNS = tested on: U251 CNS
# UACC-257 melanoma = tested on: UACC-257 melanoma
# UACC-62 melanoma = tested on: UACC-62 melanoma
# UO-31 renal = tested on: UO-31 renal
smiles,measurement,setting,value
Cn1nc(C(F)(F)F)cc1-c1cc(Cl)c(OCc2ccc(Cl)cc2)c(-c2ccc(Cl)c(C(F)(F)F)c2)c1O,GI50,786-0 renal,1.07 µM
same,TGI,786-0 renal,2.63 µM
same,GI50,A498 renal,0.251 µM
same,TGI,A498 renal,1.09 µM
same,GI50,A549 NSCLC,1.41 µM
same,TGI,A549 NSCLC,5.6 µM
same,GI50,ACHN renal,1.39 µM
same,TGI,ACHN renal,4.6 µM
same,GI50,BT-549 breast,0.995 µM
same,TGI,BT-549 breast,2.75 µM
same,GI50,CAKI-1 renal,1.11 µM
same,TGI,CAKI-1 renal,3.49 µM
same,GI50,CCRF-CEM leukemia,0.821 µM
same,TGI,CCRF-CEM leukemia,19.6 µM
same,GI50,COLO 205 colon,0.718 µM
same,TGI,COLO 205 colon,2.39 µM
same,GI50,DU-145 prostate,1.76 µM
same,TGI,DU-145 prostate,6.87 µM
same,GI50,EKVX NSCLC,1.21 µM
same,TGI,EKVX NSCLC,5.41 µM
same,GI50,HCC-2998 colon,1.4 µM
same,TGI,HCC-2998 colon,5.45 µM
same,GI50,HCT-116 colon,0.691 µM
same,TGI,HCT-116 colon,1.86 µM
same,GI50,HCT-15 colon,0.764 µM
same,TGI,HCT-15 colon,4.4 µM
same,GI50,HL-60(TB) leukemia,1.12 µM
same,TGI,HL-60(TB) leukemia,2.49 µM
same,GI50,HOP-62 NSCLC,1.26 µM
same,TGI,HOP-62 NSCLC,3.3 µM
same,GI50,HOP-92 NSCLC,0.554 µM
same,TGI,HOP-92 NSCLC,2.1 µM
same,GI50,HS 578T breast,0.975 µM
same,TGI,HS 578T breast,2.92 µM
same,GI50,HT29 colon,1.4 µM
same,TGI,HT29 colon,5.92 µM
same,GI50,IGROV1 ovarian,1.56 µM
same,TGI,IGROV1 ovarian,6.42 µM
same,GI50,K-562 leukemia,0.312 µM
same,TGI,K-562 leukemia,5.08 µM
same,GI50,KM12 colon,1.38 µM
same,TGI,KM12 colon,5.07 µM
same,GI50,LOX IMVI melanoma,1.16 µM
same,TGI,LOX IMVI melanoma,3.12 µM
same,GI50,M14 melanoma,1.16 µM
same,TGI,M14 melanoma,2.93 µM
same,GI50,MALME-3M melanoma,1.06 µM
same,TGI,MALME-3M melanoma,2.57 µM
same,GI50,MCF7 breast,1.01 µM
same,TGI,MCF7 breast,5.33 µM
same,GI50,MDA-MB-231 breast,0.958 µM
same,TGI,MDA-MB-231 breast,2.43 µM
same,GI50,MDA-MB-435,1.42 µM
same,TGI,MDA-MB-435,4.18 µM
same,GI50,MOLT-4 leukemia,1.01 µM
same,TGI,MOLT-4 leukemia,2.39 µM
same,GI50,NCI-H226 lung,1.36 µM
same,TGI,NCI-H226 lung,4.3 µM
same,GI50,NCI-H23 lung,0.965 µM
same,TGI,NCI-H23 lung,3.86 µM
same,GI50,NCI-H460 lung,0.852 µM
same,TGI,NCI-H460 lung,2.21 µM
same,GI50,NCI-H522 lung,0.731 µM
same,TGI,NCI-H522 lung,5.09 µM
same,GI50,NCI/ADR-RES ovarian,1.35 µM
same,TGI,NCI/ADR-RES ovarian,5.33 µM
same,GI50,OVCAR-3 ovarian,1.13 µM
same,TGI,OVCAR-3 ovarian,6.12 µM
same,GI50,OVCAR-4 ovarian,1.66 µM
same,TGI,OVCAR-4 ovarian,7.14 µM
same,GI50,OVCAR-5 ovarian,1.72 µM
same,TGI,OVCAR-5 ovarian,7.4 µM
same,GI50,OVCAR-8 ovarian,1.2 µM
same,TGI,OVCAR-8 ovarian,5.41 µM
same,GI50,PC-3 prostate,0.709 µM
same,TGI,PC-3 prostate,5.09 µM
same,GI50,RPMI-8226 leukemia,0.712 µM
same,TGI,RPMI-8226 leukemia,2.55 µM
same,GI50,RXF 393 renal,1.01 µM
same,TGI,RXF 393 renal,3.11 µM
same,GI50,SF-268 CNS,1.24 µM
same,TGI,SF-268 CNS,5.47 µM
same,GI50,SF-295 CNS,0.997 µM
same,TGI,SF-295 CNS,2.55 µM
same,GI50,SF-539 CNS,1.07 µM
same,TGI,SF-539 CNS,3.26 µM
same,GI50,SK-MEL-2 melanoma,0.919 µM
same,TGI,SK-MEL-2 melanoma,2.34 µM
same,GI50,SK-MEL-28 melanoma,1.14 µM
same,TGI,SK-MEL-28 melanoma,3.53 µM
same,GI50,SK-MEL-5 melanoma,0.777 µM
same,TGI,SK-MEL-5 melanoma,1.74 µM
same,GI50,SK-OV-3 ovarian,1.43 µM
same,TGI,SK-OV-3 ovarian,4.31 µM
same,GI50,SN12C renal,0.785 µM
same,TGI,SN12C renal,4.58 µM
same,GI50,SNB-19 CNS,1.16 µM
same,TGI,SNB-19 CNS,6.72 µM
same,GI50,SNB-75 CNS,0.984 µM
same,TGI,SNB-75 CNS,2.68 µM
same,GI50,SR leukemia,0.651 µM
same,TGI,SR leukemia,2.11 µM
same,GI50,SW-620 colon,1.38 µM
same,TGI,SW-620 colon,5.38 µM
same,GI50,T-47D breast,0.435 µM
same,TGI,T-47D breast,2.96 µM
same,GI50,TK-10 renal,1.66 µM
same,TGI,TK-10 renal,5.56 µM
same,GI50,U251 CNS,1.05 µM
same,TGI,U251 CNS,5.13 µM
same,GI50,UACC-257 melanoma,0.964 µM
same,TGI,UACC-257 melanoma,3.14 µM
same,GI50,UACC-62 melanoma,0.91 µM
same,TGI,UACC-62 melanoma,2.51 µM
same,GI50,UO-31 renal,1.12 µM
same,TGI,UO-31 renal,3.51 µM
